Source: patent publication US9987299B2, “Methods of improving RNAi in well-differentiated airway epithelia” (University of Iowa Research Foundation, priority 2014, dated 2018)

Columns and labels:
CFTR protein = CFTR protein levels, immunoprecipitation and immunoblot with densitometry in HAE; assay type: cell-based, human
Method: FIG. 4. […] Alternatively, spiperone was applied apically and basolaterally to well-differentiated HAE for 6 hours, and then removed by rinsing before incubation for 4 hours with CFTR-targeting or NC1 DsiRNAs complexed with Transductin. In both cases, 24 hours after transfection, and RNA levels quantified by RT-qPCR. (b) A representative immunoblot from similarly treated wells, but cells were lysed and proteins visualized after immunoprecipitation with anti-CFTR antibody. Alpha-tubulin was used as a loading control. (c) Densitometry readings of immunoblots with results normalized to NC1 treated samples. In all cases, data are from 3 biological replicates and are mean±SD. ***p<0.001, **p<0.01 (Student's t-test).
HAE were rinsed with PBS and lysed in RIPA buffer (1% NP-40, 0.5% sodium deoxycholate, 0.1% SDS, 50 mM Tris, protease inhibitors [complete; mini, EDTA-free; Roche Biochemicals, Indianapolis, Ind.]) for 30 minutes at 4° C. The lysate were centrifuged in a table top centrifuge at 14,000 rpm for 20 minutes at 4° C. The supernatant was quantified by BCA protein assay kit (Pierce, Rockford, Ill.). Thirty micrograms of protein per lane was separated on a 10% Tris-HCL Criterion precast gel (Bio-Rad, Hercules, Calif.) for western blot analysis. The protein was transferred to Polyvinylidene difluoride membrane and then was probed with goat anti-RSV antibody purchased from Meridian Life Sciences (Memphis, Tenn.). The membrane was imaged, and then stripped with Restore Western Blot Stripping Buffer (Thermo Scientific, Lafayette, Colo.) for 15 minutes. The membrane was rinsed with Tris-buffered saline-Tween (TBS-T) and blocked in 5% bovine serum albumin (Research Products International Corp, Mt. Prospect, Ill.). The membrane was then reprobed with α-tubulin (Sigma-Aldrich).

Human HPRT mRNA = assay: HPRT mRNA silencing by DsiRNA-Transductin in well-differentiated HAE (RT-qPCR); assay type: cell-based
Method: FIG. 1. […] (a) Well-differentiated HAE cultures grown at the ALI were incubated in adding HPRT-targeting or control NC1 DsiRNA (250 nM) formulated with Transductin containing 0.1 or 0.01 mg LOS (HPRT-targeting DsiRNAs) or 0.1 mg LOS (NC1 DsiRNA). After 4 hours, the apical surface was rinsed and 24 hours later, target RNA levels quantified by RT-qPCR. All mRNA levels were normalized to NC1-treated samples. Mean levels were calculated from three biological replicates, each done in triplicate. ***p<0.001, **p<0.01 (Student's t-test). […] Samples were normalized to NC1-treated cells. ***p<0.001, **p<0.01 (Student's t-test). […] PAFRa was present throughout transfection in cells pre-treated with the reagent. Cells were harvested and RNA quantified 24 hrs later. Samples were normalized to NC1-treated cells. **p<0.01 (Student's t-test).
FIG. 3. Spiperone improves RNAi responses in DsiRNA transduced cells. HAE were pre-treated with various small molecules at the concentration indicated. The drugs were added to the apical surface and the basolateral media for 6 hours. Both surfaces were then washed and HPRT or NC1 DsiRNA formulated with Transductin added to the apical surface. The cells were washed after 4 hours, and RT-qPCR done on cell lysates harvested 24 hours later.
Human airway epithelial cells were obtained from trachea and bronchi of lungs removed for organ donation from non-CF individuals. Cells were isolated by enzyme digestion as previously described. Following enzymatic dispersion, cells were seeded at a density of 5×10^5 cells/cm^2 onto collagen-coated, 0.6 cm^2 semi permeable membrane filters (Millipore polycarbonate filters; Millipore Corp., Bedford, Mass.). The cells were maintained at 37° C. in a humidified atmosphere of 5% CO2 air. Twenty-four hours after plating, the apical media was removed and the cells were maintained at an air-liquid interface (ALI) to allow differentiation of the epithelium. The culture medium consisted of 1:1 ratio mix of Dulbecco's modified Eagle's medium (DMEM)/Ham's F12, 5% Ultroser G (Biosepra S A, Cedex, France), 100 U/ml penicillin, 100 μg/ml streptomycin, 1% nonessential amino acids and 0.12 U/ml insulin. Studies were performed on well-differentiated epithelia approximately 4 to 6 weeks after initiation of the ALI cultures conditions. HEp-2 cells were maintained in MEM substituted with 10% fetal bovine serum and 100 U/ml penicillin.
PAF was purchased from Sigma-Aldrich. The reagent was reconstituted in ethanol and used in the experiment at a concentration of 200 nM or as described in the figures. PAF was added to the transfection mixture at the apical surface as well as to the basolateral media. PAFRa (WEB 2086) was purchased from Sigma-Aldrich. […] The reagent was incubated with the cells throughout the transfection period.
All the small molecules tested were purchased from Sigma-Aldrich. The chemicals were reconstituted in appropriate solutions as recommended by the manufacturer. The epithelia were pre-treated with drugs for 6 hours at concentrations used in the CMAP study or noted in the published literature. Following drug treatment, the epithelia were transduced with DsiRNA as described above.
For well-differentiated airway epithelia, transfection was performed mostly according to the manufacturer's protocol. In all cases, the apical surface of epithelia was rinsed twice with PBS before adding the transfection mixture to the apical surface. DsiRNAs were used at a concentration of 250 nM. The mixture was left on the cells for 4 hours after which the medium was removed, the apical surface rinsed with PBS and the cells incubated further for 24 hours. For all experiments, a minimum of 3 biological replicates, in triplicate, were done.
Total RNA was isolated using SV96 RNA isolation kit (Promega, Madison, Wis.), according to manufacturer's protocol. […]

HAE = assay: DIG-labeled DsiRNA entry and uptake into HAE (confocal imaging); assay type: cell-based, human; conditions: PAF-treated HAE, 1 hour after transduction with Transductin, compared with control HAE
Method: FIG. 2. PAF treatment enhances DsiRNA entry and uptake into cells. […] Blue, nuclei; green, DIG-labeled oligo. The images on the right and the left are from different fields.
The primary human airway epithelia grown at the air-liquid interface were transfected with the DIG-labeled DsiRNA at a concentration of 250 nM after complexing with Transductin. The transfection mixture was left on the apical surface for 1 h. At the end of this period, the cells were fixed in 2% formaldehyde, permeabilized in 0.2% Triton-x-100 and blocked in 1% BSA for 1 h. The cells were then stained with mouse antibody to DIG (Roche Biochemicals, Indianapolis, Ind.) for 1 h, followed by Alexa 488 labeled goat anti-mouse secondary antibody for 1 h, and then Alexa 488 labeled rabbit anti-mouse tertiary antibody (Life Technologies, Carlsbad, Calif.). In some cases an Alexa 564 goat anti-mouse secondary antibody was used. The cells were finally stained with nuclear stain, ToPro 3 for 10 minutes. The filter, containing the cells, was removed from the culture insert by cutting the edges with razor blade, and mounted on a slide with Vectashield (Vector Laboratories Inc, Burlingame, Calif.). The cells were visualized by confocal microscopy (Bio-Rad Radience 2100MP Multiphoton/Confocal Microscope, Bio-Rad, Hercules, Calif.).

platelet activating factor [PAF]
CFTR protein levels compared to controls (CFTR protein; PAF or spiperone and CFTR DsiRNA-Transductin, immunoprecipitation, western blot): reduced CFTR protein levels
fully glycosylated CFTR band C (CFTR protein; densitometry, normalized to NC1 treated samples): significantly decreased
duration of knock down: HPRT mRNA levels (Human HPRT mRNA; 1 and 3 days post PAF-assisted transfection): significantly reduced
duration of knock down: HPRT transcript levels (Human HPRT mRNA; 6 and 10 days post PAF-assisted transfection): returning to basal levels
dose-response of PAF on DsiRNA silencing (Human HPRT mRNA; PAF at different doses, 4 hours with HPRT DsiRNA-Transductin (FIG. 7)): A dose-response relationship for PAF on DsiRNA silencing was observed
amount of internalized DIG-labeled DsiRNA (HAE): substantial increase in the amount of internalized label
